Reference: patent US20120196899A1, “METHODS AND PRODUCTS FOR TREATING INFLAMMATION” (Rock Creek Pharmaceuticals, Inc., priority 2010, published 2012)
Where “and” joins values, the source holds several entries; their conditions need not be identical. Equal entries are not always repeated. Entries after “also recorded” stand apart in the source; their conditions may differ.

How the values were obtained:
[1] = Body weights, weight gain and food consumption over 14 days after single i.v. dose; type: in vivo, Sprague-Dawley rats; conditions: for Mean food consumption/day / Mean weigth increase by day 14 / day 13 B.W. / day 14 B.W. / B.W. day 1 / B.W. day 2 / B.W. day 3 / B.W. day 4 / B.W. day 5 / B.W. day 6 / B.W. day 7 / B.W. day 8 / B.W. day 9 / B.W. day 10 / B.W. day 11 / B.W. day 12: nicotine 0.75 mg/kg single i.v.; for day 13 B.W. / day 14 B.W. / B.W. day 1 / B.W. day 2 / B.W. day 3 / B.W. day 4 / B.W. day 5 / B.W. day 6 / B.W. day 7 / B.W. day 8 / B.W. day 9 / B.W. day 10 / B.W. day 11 / B.W. day 12 / Average Daily Food Consumption per Rat: tartrate; for B.W. day 1 / B.W. day 2 / B.W. day 3 / B.W. day 4 / B.W. day 5 / B.W. day 6 / B.W. day 7 / B.W. day 8 / B.W. day 9 / B.W. day 10 / B.W. day 11 / B.W. day 12: individual animals; for Average Daily Food Consumption per Rat: nicotine 0.75 mg/kg, per cage (cage 1, 2)
Description: Body weight and food consumption was measured daily for 14 days. On day 15, urine was collected on all surviving animals. The animals were euthanized and bled via cardiac puncture, and blood was collected for analysis. Tissues were collected, weighed, evaluated for gross abnormalities, and stored in 10% neutral-buffered formalin.
All animals were observed daily.

nAChR α4/β2 = target: T1, nAChR α4/β2 (Homo sapiens, UniProt P17787+P43681); type: cell-based; conditions: 100 μM Ach + 0.3 μM epibatidine; not concentration-dependent, IC50 not determinable
T1 construct: host or cells: HEK293 cells, transient transfection
Description: The following three (3) channels were evaluated: • 1. nAChR α3/β4 (encoded by the human CHRNA3 and CHRNB4 gene and stably expressed in CHO cells); • 2. nAChR α4/β2 (CHRNA4 and CHRNB2 gene and transiently expressed in HEK293 cells); and • 3. nAChR α7 (encoded by the human nicotinic α7 gene coexpressed in CHO cells with the chaperone RIC-3 encoded by the human RIC3 gene).
The ability of each test article to act as an agonist, a positive allosteric modulator or antagonist of three nAChR receptor channels was evaluated in the presence of 0.1 atropine. Both test articles were evaluated for responses on each nAChR channel at eight (8) concentrations: 0.3, 1, 3, 10, 30, 100, 300, and 1000 μM (n=4 for each concentration).
HEK293 or CHO cells were transiently or stably transfected with the appropriate human ion channel cDNAs. Stable transfectants were selected by coexpression with the antibiotic-resistance gene(s) incorporated into the expression plasmid(s). […]
For FLIPR TETRA™ assay, cells were plated in 384-well black wall, flat clear bottom microtiter plates (Type: BD Biocoat Poly-D-Lysine Multiwell Cell Culture Plate) at 20,000 to 30,000 cells per well (384-well plate). Cells were incubated at 37° C. overnight or until the cells reached a sufficient density in the wells (near confluent monolayer) to use in fluorescence assays. […]

nAChR α3/β4 = nAChR α3/β4 (Homo sapiens, UniProt P30926+P32297)
Description: HEK293 or CHO cells were transiently or stably transfected with the appropriate human ion channel cDNAs. Stable transfectants were selected by coexpression with the antibiotic-resistance gene(s) incorporated into the expression plasmid(s). Selection pressure was maintained by including selection antibiotics in the culture medium. HEK293 cells were cultured in Dulbecco's Modified Eagle Medium/Nutrient Mixture F-12 (D-MEM/F-12) supplemented with 10% fetal bovine serum, 100 U/mL penicillin G sodium, 100 g/mL streptomycin sulfate and appropriate selection antibiotics. CHO cells were cultured in Ham's F-12 supplemented with 10% fetal bovine serum, 100 U/mL penicillin G sodium, 100 g/mL streptomycin sulfate and appropriate selection antibiotics.
For FLIPR TETRA™ assay, cells were plated in 384-well black wall, flat clear bottom microtiter plates (Type: BD Biocoat Poly-D-Lysine Multiwell Cell Culture Plate) at 20,000 to 30,000 cells per well (384-well plate). Cells were incubated at 37° C. overnight or until the cells reached a sufficient density in the wells (near confluent monolayer) to use in fluorescence assays. For α4β2 assay, cells were incubated at 27° C. for at least 7 hours before use.
Experiments were performed with either the FLIPR calcium sensitive dye kit (Fluo-8, ABDbioquest, for nAChR α3/β4 and nAChR α7) or FLIPR membrane potential kit (Molecular Devices, for nAChR α4/β2) according to the manufacturer's instructions. Briefly, cells were incubated with 201 dye for 30 min at 37° C. After dye loading period, for the agonist assay, 5 μl of the test, vehicle, or control articles at concentration of 5 times of final concentration were applied to the cells without stimulation. For the positive allosteric modulation (PAM) and antagonist assay, after test article application, the cells were stimulated with either low dose (for PAM) or high dose (for antagonist) of Ach.
The signal elicited in the presence of the positive control agonist and allosteric modulator (10 μM Ach+1 μM epibatidine) was set to 100% and the signal from the agonist control (10 μM Ach) was set to 0%.

Urinalysis, day 15 = type: in vivo, Sprague-Dawley rats; conditions: Dose is 0.75 mg/kg nicotine
Source text: On day 15, urine was collected on all surviving animals for urinalysis. The animals were euthanized and bled via cardiac puncture. Blood was collected for hematology, clinical chemistry, and coagulation analysis. Tissues were collected, weighed, and stored in 10% neutral-buffered formalin for possible future analysis.
There were no notable differences between the active treatment groups and controls and the observations are all consistent with those expected for this species.

[2] = Physical signs after single i.v. dose (Example 3); type: in vivo, Sprague-Dawley rats; conditions: nicotine 0.4 mg/kg single i.v.; all males and two females
Description: Four aliquots of each dose level formulation were collected and stored at −80° C. The test compound, corresponding dose level, number of animals, and sample collection times for Phase I of the study are shown in Table 3. The test compound, corresponding dose level, number of animals, and sample collection times for Phase II of the study are shown in Table 4. The physical signs of each animal were monitored following administration of the test compound.

[3] = tested on: TNFα-induced NFκB activity; experiment: NFκB luciferase assay (inhibition of TNFα-induced NFκB activity) in HEK293 reporter cells; type: cell-based, Human; conditions: HEK293 reporter cells challenged with TNFα for three hours
Description: The smokeless tobacco used in these experiments was plain long-leaf Copenhagen tobacco purchased from a local vendor. Crude extract was extracted with methanol and water and clarified by centrifugation and filtration. The alkaloid extract was prepared from sodium hydroxide and methanol extraction, organic phase separation and purification. All treatment samples were prepared as a function of weight (μg/ml), and all samples were diluted in DMSO.
Human […] kidney cells (HEK293) transfected with an NFκB luciferase reporter were challenged with TNFα for three hours, then samples were applied to the challenged cells.

nAChR α7 = target: T2, nAChR α7 (Homo sapiens, UniProt P36544); experiment: nAChR α7 channel agonist assay (FLIPR, with PNU-120596); type: cell-based; conditions: with 10 μM PNU-120596; maximal stimulation not achieved
T2 construct: host or cells: CHO cells
Description: Therefore, the assay of agonist activity for either Ach or for the test articles was conducted in the presence of the positive allosteric modulator.

[4] = individual animals E1-E10 (M and F)
[5] = individual animals E1-E10 (M and F), tartrate, 0.75 mg/kg

T2 sequence (P36544 23-502): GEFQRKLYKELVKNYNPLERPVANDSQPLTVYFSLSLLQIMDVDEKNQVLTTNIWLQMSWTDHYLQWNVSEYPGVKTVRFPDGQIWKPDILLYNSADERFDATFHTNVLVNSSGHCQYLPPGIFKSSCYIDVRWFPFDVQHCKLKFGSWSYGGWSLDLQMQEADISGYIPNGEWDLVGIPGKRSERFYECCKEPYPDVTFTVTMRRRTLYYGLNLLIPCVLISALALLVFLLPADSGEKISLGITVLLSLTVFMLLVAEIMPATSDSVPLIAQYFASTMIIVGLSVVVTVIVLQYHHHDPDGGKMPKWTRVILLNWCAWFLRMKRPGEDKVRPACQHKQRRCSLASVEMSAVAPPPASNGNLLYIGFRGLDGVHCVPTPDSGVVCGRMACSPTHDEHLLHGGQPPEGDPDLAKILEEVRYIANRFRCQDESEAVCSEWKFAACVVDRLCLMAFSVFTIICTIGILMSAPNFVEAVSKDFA
T1 sequence (P17787 26-502): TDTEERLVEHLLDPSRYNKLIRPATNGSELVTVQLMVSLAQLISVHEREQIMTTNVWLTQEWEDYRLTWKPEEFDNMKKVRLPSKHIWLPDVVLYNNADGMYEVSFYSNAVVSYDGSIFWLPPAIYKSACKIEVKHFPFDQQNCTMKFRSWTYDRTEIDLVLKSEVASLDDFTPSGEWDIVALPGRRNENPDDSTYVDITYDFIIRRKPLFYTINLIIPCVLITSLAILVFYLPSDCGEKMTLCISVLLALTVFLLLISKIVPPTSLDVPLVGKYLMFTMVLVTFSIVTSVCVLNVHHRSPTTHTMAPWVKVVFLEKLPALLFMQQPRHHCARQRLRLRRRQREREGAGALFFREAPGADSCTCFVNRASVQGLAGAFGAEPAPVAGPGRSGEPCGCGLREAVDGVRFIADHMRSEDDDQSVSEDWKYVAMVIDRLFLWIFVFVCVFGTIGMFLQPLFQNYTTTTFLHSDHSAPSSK
T1 sequence (P43681 29-627): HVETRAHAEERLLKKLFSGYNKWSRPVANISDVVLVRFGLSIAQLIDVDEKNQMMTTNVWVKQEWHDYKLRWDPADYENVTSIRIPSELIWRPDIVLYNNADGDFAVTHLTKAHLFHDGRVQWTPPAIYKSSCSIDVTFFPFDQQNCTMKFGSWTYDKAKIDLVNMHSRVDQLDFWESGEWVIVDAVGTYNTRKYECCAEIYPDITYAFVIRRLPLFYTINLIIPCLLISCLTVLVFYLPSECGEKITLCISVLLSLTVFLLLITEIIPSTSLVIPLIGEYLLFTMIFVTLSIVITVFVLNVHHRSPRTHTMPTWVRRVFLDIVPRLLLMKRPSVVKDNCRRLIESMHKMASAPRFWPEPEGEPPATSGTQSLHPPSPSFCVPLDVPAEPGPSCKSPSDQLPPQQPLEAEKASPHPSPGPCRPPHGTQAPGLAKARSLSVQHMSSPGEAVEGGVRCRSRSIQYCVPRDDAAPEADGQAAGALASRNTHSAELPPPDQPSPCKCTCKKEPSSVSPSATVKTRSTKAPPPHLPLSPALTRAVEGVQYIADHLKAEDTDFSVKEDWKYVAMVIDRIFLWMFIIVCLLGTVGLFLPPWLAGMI
Chain of nAChR α3/β4 (P32297 32-505): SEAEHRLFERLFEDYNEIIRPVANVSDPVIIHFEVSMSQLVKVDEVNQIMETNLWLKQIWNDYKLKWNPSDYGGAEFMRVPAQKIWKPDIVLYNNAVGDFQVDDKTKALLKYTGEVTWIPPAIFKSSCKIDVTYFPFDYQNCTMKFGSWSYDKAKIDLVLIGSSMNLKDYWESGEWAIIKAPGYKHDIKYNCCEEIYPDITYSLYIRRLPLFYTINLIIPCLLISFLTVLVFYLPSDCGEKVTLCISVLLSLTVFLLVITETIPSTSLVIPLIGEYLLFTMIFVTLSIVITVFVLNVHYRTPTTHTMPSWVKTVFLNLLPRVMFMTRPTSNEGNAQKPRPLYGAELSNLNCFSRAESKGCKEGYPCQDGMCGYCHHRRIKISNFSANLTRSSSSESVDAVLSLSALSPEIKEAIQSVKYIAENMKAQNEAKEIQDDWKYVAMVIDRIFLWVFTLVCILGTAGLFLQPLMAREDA
Chain of nAChR α3/β4 (P30926 22-498): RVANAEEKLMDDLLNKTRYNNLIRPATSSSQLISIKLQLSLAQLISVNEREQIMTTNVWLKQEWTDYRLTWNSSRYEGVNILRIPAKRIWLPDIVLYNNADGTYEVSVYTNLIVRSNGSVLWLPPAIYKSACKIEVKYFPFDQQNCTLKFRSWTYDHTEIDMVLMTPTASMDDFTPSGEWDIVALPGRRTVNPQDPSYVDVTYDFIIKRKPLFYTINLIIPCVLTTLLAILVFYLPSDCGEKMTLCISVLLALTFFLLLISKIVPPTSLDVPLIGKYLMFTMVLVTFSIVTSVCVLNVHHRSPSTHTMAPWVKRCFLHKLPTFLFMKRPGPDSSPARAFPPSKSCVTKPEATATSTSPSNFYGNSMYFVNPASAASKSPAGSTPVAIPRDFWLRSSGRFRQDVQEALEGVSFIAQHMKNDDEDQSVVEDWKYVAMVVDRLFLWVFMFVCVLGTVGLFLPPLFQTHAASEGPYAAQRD

CN1CCCC1c1cccnc1.O=C(O)C(O)C(O)C(=O)O (single isomer, unassigned; (-)) [Nicotine, (−) Nicotine hydrogen tartrate, reference compound]
Mean food consumption/day ([1]; Female): 20.6 g
Mean weigth increase by day 14 ([1]; Female): 40.8 g
Mean food consumption/day ([1]; Male): 26.4 g
Mean weigth increase by day 14 ([1]; Male): 98.5 g
day 13 B.W. ([1]; individual female rats): 232.6 g and 251.8 g and 227.3 g
day 14 B.W. ([1]; individual female rats): 230.4 g and 249 g and 229 g
day 13 B.W. ([1]; individual male rats): 330 g and 312.3 g and 292.4 g and 299.4 g
day 14 B.W. ([1]; individual male rats): 339.2 g and 316.1 g and 297.6 g and 305 g
B.W. day 1 ([1]; day 1, female rats): 191.6 g and 206.1 g and 192.8 g
B.W. day 1 ([1]; day 1, male rats): 227 g and 228 g and 223 g and 219 g
B.W. day 2 ([1]; day 2, female rats): 190.5 g and 213.4 g and 195.7 g
B.W. day 2 ([1]; day 2, male rats): 234.9 g and 239.1 g and 229.5 g and 229.1 g
B.W. day 3 ([1]; day 3, female rats): 198 g and 217.1 g and 199.1 g
B.W. day 3 ([1]; day 3, male rats): 243 g and 245.1 g and 241.1 g and 238.4 g
B.W. day 4 ([1]; day 4, female rats): 207.8 g and 223.8 g and 205.6 g
B.W. day 4 ([1]; day 4, male rats): 260.5 g and 263.4 g and 257.6 g and 252.9 g
B.W. day 5 ([1]; day 5, female rats): 212.3 g and 226.3 g and 206.4 g
B.W. day 5 ([1]; day 5, male rats): 272.1 g and 269.1 g and 260.7 g and 258.7 g
B.W. day 6 ([1]; day 6, female rats): 207 g and 228.9 g and 205.5 g
B.W. day 6 ([1]; day 6, male rats): 259 g and 275.4 g and 270 g and 262.8 g
B.W. day 7 ([1]; day 7, female rats): 213 g and 240.1 g and 218.3 g
B.W. day 7 ([1]; day 7, male rats): 279.9 g and 295.8 g and 288 g and 277.8 g
B.W. day 8 ([1]; day 8, female rats): 218 g and 237.4 g and 217.4 g
B.W. day 8 ([1]; day 8, male rats): 284 g and 293.7 g and 285.6 g and 278 g
B.W. day 9 ([1]; day 9, female rats): 219.1 g and 236.4 g and 213.2 g
B.W. day 9 ([1]; day 9, male rats): 274.9 g and 303.5 g and 285.6 g and 274.6 g
B.W. day 10 ([1]; day 10, female rats): 221.8 g and 240.1 g and 220.5 g
B.W. day 10 ([1]; day 10, male rats): 286.1 g and 314.2 g and 301 g and 283.4 g
B.W. day 11 ([1]; day 11, female rats): 222.8 g and 244.5 g and 226 g
B.W. day 11 ([1]; day 11, male rats): 292.2 g and 317.7 g and 300.1 g and 291.5 g
B.W. day 12 ([1]; day 12, female rats): 232.1 g and 248.9 g and 227.7 g
B.W. day 12 ([1]; day 12, male rats): 290.7 g and 329.5 g and 303 g and 287.3 g
Average Daily Food Consumption per Rat ([1]; female, day 1): 23.7 grams and 14.8 grams
Average Daily Food Consumption per Rat ([1]; female, day 2): 18.4 grams and 24.9 grams
Average Daily Food Consumption per Rat ([1]; female, day 3): 22.2 grams and 22.3 grams
Average Daily Food Consumption per Rat ([1]; female, day 4): 19.4 grams and 15.8 grams
Average Daily Food Consumption per Rat ([1]; female, day 5): 18.7 grams and 16.2 grams
Average Daily Food Consumption per Rat ([1]; female, day 6): 20.0 grams and 17.2 grams
Average Daily Food Consumption per Rat ([1]; female, day 7): 19.4 grams and 21.7 grams
Average Daily Food Consumption per Rat ([1]; female, day 8): 20.1 grams and 20.6 grams
Average Daily Food Consumption per Rat ([1]; female, day 9): 24.4 grams and 21.5 grams
Average Daily Food Consumption per Rat ([1]; female, day 10): 22.6 grams and 20.4 grams
Average Daily Food Consumption per Rat ([1]; female, day 11): 20.4 grams and 20.3 grams
Average Daily Food Consumption per Rat ([1]; female, day 12): 22.5 grams and 21.7 grams
Average Daily Food Consumption per Rat ([1]; female, day 13): 23.7 grams and 21.2 grams
Average Daily Food Consumption per Rat ([1]; female, day 14): 24.4 grams and 19.6 grams
Average Daily Food Consumption per Rat ([1]; males, day 1): 20.8 grams and 19.3 grams
Average Daily Food Consumption per Rat ([1]; males, day 2): 26.2 grams and 23.5 grams
Average Daily Food Consumption per Rat ([1]; males, day 3): 26.6 grams and 26.2 grams
Average Daily Food Consumption per Rat ([1]; males, day 4): 26.2 grams and 23.7 grams
Average Daily Food Consumption per Rat ([1]; males, day 5): 25.1 grams and 21.9 grams
Average Daily Food Consumption per Rat ([1]; males, day 6): 23.8 grams and 25.9 grams
Average Daily Food Consumption per Rat ([1]; males, day 7): 26.5 grams and 27.9 grams
Average Daily Food Consumption per Rat ([1]; males, day 8): 24.0 grams and 28.2 grams
Average Daily Food Consumption per Rat ([1]; males, day 9): 27.3 grams and 26.1 grams
Average Daily Food Consumption per Rat ([1]; males, day 10): 29.6 grams and 30.9 grams
Average Daily Food Consumption per Rat ([1]; males, day 11): 30.1 grams and 29.1 grams
Average Daily Food Consumption per Rat ([1]; males, day 12): 26.5 grams and 23.4 grams
Average Daily Food Consumption per Rat ([1]; males, day 13): 31.9 grams and 28.4 grams
Average Daily Food Consumption per Rat ([1]; males, day 14): 32.7 grams and 26.4 grams
inhibition of receptor activity (nAChR α4/β2): inhibited receptor activity
potentiation (nAChR α3/β4): Neither nicotine nor anatabine potentiated the activity
Urinalysis VOLUME (Urinalysis, day 15; animal E6 (F)): 10 UL
Urinalysis CLARITY (Urinalysis, day 15; [4]): HAZY
Urinalysis COLOR (Urinalysis, day 15; [4]): YELLOW
Urinalysis GLUCOSE (Urinalysis, day 15; [4]): NEGATIVE
Urinalysis KETONES (Urinalysis, day 15; [4]): NEGATIVE
Urinalysis UROBILINOGEN (Urinalysis, day 15; [4]): NORMAL
Urinalysis VOLUME (Urinalysis, day 15; [4]): <0.5 mL
Urinalysis PROTEIN (Urinalysis, day 15; [5]): NEGATIVE; also recorded: TRACE
Urinalysis SPEC GRAVITY (Urinalysis, day 15; [5]): 1.054 and 1.058 and 1.046 and 1.047 and 1.052
Urinalysis pH (Urinalysis, day 15; [5]): 6 and 6.5 (2×) and 7 and 7.5
physical signs [2]: experienced tremors immediately post dose
TNFα-induced NFκB-mediated transcription of luciferase [3]: reduce TNFα-induced NFκB-mediated transcription
agonist activity (nAChR α7): showed agonist activity
